The subject of experiment [1] is UNG expression in H460 cells. Description: UNG protein and transcript expression after acute pemetrexed exposure, H460. The note with it: acute pemetrexed exposure 0-200 nM. Format: cell-based, human. The method, then:
Protein extracts (25 μg) were resolved by SDS-PAGE and transferred to PVDF membrane (Millipore). Non-specific binding sites were blocked in 5% milk in PBST (1×PBS+0.1% Tween-20). Incubation with primary antibody at 4° C. in 5% BSA/PBS was followed by incubation with HRP-conjugated secondary antibody in 2.5% milk in PBST. Proteins were visualized with ECL reagent (Amersham Corp). Chromatinbound proteins were extracted from formaldehyde (1%) cross-linked cells using Pierce Chromatin Prep Module (Thermo Pierce). Antibody sources: UNG-23936 (39 kDa band, nuclear UNG) and PCNA (Abcam); Tubulin (Calbiochem); γH2AX and Histone-H3 (Millipore); Cleaved PARP (Cell Signaling); and p-chk1, chk1, cdc2, and p-cdc2 (Santa Cruz).
Lung cancer cDNA microarray was purchased from Origene. For cell lines, total RNA was extracted from cells using RNAqueous-4PCR kit (Ambion, Austin, Tex.). Random hexamers (Invitrogen) were used to PCR amplify cDNA from 1 μg of RNA extract. TaqMAN MGB probes (FAMTM dye labeled, Applied Biosystems) for nuclear UNG (UNG2), SMUG1, MBD4, TDG, TYMS and βPol amplified cDNA using 40 cycles of PCR in an ABI 7500 Fast Real-Time PCR System (Applied Biosystems, Foster City, Calif.). Target quantification was achieved after normalization to β-actin amplification as an endogenous control and is presented as relative quantification (RQ) values or log-mean RQ values.

In another experiment the test system is DLD1 UDG+/+ cells. In words: Colony survival (clonogenic) assay, UDG+/+ cells. It counts as cell-based. The settings on record: Homo sapiens, DLD-1, interpolated from dose-response survival curves, read-out: IC50 value for pemetrexed.

SMILES strings stand for the structures.

Method for DLD1 UDG+/+ cells: Tumor cells (500-2000/dish) were plated and treated with pemetrexed (0-400 nM), 5-fluorouracil (0-20 μM), temozolomide (0-1500 μM), or cisplatin (0-40 μM). After 7 days, surviving colonies were stained with methylene blue for 30 min at room temperature and the colonies containing more than 50 cells were counted to generate survival curves.

As for `Nc1nc2[nH]cc(CCc3ccc(C(=O)N[C@@H](CCC(=O)O)C(=O)O)cc3)c2c(=O)[nH]1` [pemetrexed], the “UNG protein and transcript expression” value in experiment [1] is “time- and dosedependent induction”. Moreover, the IC50 – broadly, the concentration that gives 50% inhibition – in the experiment on DLD1 UDG+/+ cells amounted to 210 nM.

The values are drawn from patent publication US10725042B2, “Methods of diagnosing and treating cancer” (Case Western Reserve University, priority 2012, dated 2020).
